Assay results as given in patent US20230265151A1, “GIP/GLP1 CO-AGONIST COMPOUNDS” (priority 2020, published 2023).
Like-named read-outs stand apart in the source and are kept apart here.

Legend:
Format in all cases: cell-based
[1] = target: T1, hGCGR (Homo sapiens, UniProt P47871); assay: Functional cAMP formation (HTRF) in HEK-293 clonal cells expressing hGCGR, 0.1% bovine casein, without or with 1.0% human serum albumin; conditions: hGCGR EC50, nM (SEM, n)
T1 construct: expressed in transfected cells
T1 sequence (P47871 26-477): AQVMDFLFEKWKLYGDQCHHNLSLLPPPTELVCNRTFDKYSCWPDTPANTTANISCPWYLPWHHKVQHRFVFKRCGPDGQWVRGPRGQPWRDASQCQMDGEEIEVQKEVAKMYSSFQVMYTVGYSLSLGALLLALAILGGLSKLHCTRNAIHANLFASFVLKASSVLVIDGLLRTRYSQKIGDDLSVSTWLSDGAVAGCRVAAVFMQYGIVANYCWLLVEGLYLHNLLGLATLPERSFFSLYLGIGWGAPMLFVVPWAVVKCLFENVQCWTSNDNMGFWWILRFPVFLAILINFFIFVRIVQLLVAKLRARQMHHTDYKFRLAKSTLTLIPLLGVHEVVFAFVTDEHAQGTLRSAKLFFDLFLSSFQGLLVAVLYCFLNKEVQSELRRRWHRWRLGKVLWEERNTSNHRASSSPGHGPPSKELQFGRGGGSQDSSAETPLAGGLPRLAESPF
How it was run: (§1)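 Readings of the HTRF 665/620 nm ratio, which falls as cAMP rises, were converted to nM cAMP using a standard curve after 30 min peptide exposure at 37° C.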

[2] = target: T2, hGIPR (Homo sapiens, UniProt P48546); assay: Functional cAMP formation (HTRF) in HEK-293 clonal cells expressing hGIPR, 0.1% bovine casein, without or with 1.0% human serum albumin; conditions: for Emax: percent of maximal response to GIP(1-42)NH2; for EC50: hGIPR EC50, nM (SEM, n), geometric mean
T2 construct: expressed in transfected cells
T2 sequence (P48546 22-466): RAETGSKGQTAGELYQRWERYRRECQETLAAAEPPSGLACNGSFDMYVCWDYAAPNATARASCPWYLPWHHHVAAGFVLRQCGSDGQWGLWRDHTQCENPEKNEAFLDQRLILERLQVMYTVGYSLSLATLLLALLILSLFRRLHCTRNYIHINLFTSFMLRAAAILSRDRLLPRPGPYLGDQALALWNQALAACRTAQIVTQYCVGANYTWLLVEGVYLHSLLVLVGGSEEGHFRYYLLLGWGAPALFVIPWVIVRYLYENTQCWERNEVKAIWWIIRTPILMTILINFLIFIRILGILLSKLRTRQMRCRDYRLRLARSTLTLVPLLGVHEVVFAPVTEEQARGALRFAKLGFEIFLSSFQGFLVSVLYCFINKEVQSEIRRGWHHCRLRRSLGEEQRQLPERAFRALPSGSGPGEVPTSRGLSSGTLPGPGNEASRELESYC
How it was run: as §1

[3] = target: hGLP-1R (Homo sapiens, UniProt P43220); assay: Functional cAMP formation (HTRF) in HEK-293 clonal cells expressing hGLP-1R, 0.1% bovine casein, without or with 1.0% human serum albumin; parameters: expressed in transfected cells; conditions: for EC50: hGLP-1R EC50, nM (SEM, n), cAMP, 0.1% bovine casein (no human serum albumin), geometric mean
Chain of hGLP-1R (P43220 24-463): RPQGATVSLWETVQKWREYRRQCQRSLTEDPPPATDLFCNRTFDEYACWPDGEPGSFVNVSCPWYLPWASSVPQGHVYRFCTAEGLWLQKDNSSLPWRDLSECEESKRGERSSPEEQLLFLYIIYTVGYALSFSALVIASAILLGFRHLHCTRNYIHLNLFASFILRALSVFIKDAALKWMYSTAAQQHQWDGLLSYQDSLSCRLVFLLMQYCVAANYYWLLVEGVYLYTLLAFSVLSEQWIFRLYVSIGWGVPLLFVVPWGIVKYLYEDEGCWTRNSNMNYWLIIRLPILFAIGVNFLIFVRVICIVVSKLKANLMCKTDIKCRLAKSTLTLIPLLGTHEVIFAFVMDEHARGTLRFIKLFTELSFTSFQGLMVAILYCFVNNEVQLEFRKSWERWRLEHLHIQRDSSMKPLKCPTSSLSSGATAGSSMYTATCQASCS
How it was run: as §1

[4] = 0.1% bovine casein and 1.0% human serum albumin, 37° C., geometric mean
[5] = cAMP, 37° C., 0.1% bovine casein (no human serum albumin), geometric mean
[6] = HEK293, read-out: hGIPR Emax, % ± SEM, 0.1% bovine casein and 1.0% human serum albumin, 37° C.
[7] = HEK293, read-out: hGIPR Emax, % ± SEM, cAMP, 37° C., 0.1% bovine casein, arithmetic mean
[8] = cAMP, 37° C., 0.1% bovine casein (no human serum albumin)
[9] = HEK293, read-out: hGLP-1R Emax, % ± SEM, 0.1% bovine casein and 1.0% human serum albumin, 37° C., percent of maximal response to GLP-1(7-36)NH2

## CC[C@H](C)[C@H](NC(=O)[C@H](CCCN)NC(=O)[C@H](CC(=O)O)NC(=O)[C@H](CC(C)C)NC(=O)[C@](C)(CC(C)C)NC(=O)[C@@H](NC(=O)[C@H](CO)NC(=O)[C@H](Cc1ccncc1)NC(=O)[C@H](CC(=O)O)NC(=O)[C@H](CO)NC(=O)[C@@H](NC(=O)[C@](C)(Cc1ccccc1F)NC(=O)[C@@H](NC(=O)CNC(=O)[C@H](CCC(=O)O)NC(=O)C(C)(C)NC(=O)[C@@H](N)Cc1ccc(O)cc1)[C@@H](C)O)[C@@H](C)O)[C@@H](C)CC)C(=O)N[C@@H](C)C(=O)N[C@@H](CCC(N)=O)C(=O)NC(C)(C)C(=O)N[C@@H](CCCCNC(=O)COCCOCCNC(=O)COCCOCCNC(=O)CC[C@H](NC(=O)CCCCCCCCCCOc1ccc(C(=O)O)cc1)C(=O)O)C(=O)N[C@@H](Cc1ccccc1)C(=O)N[C@H](C(=O)N[C@H](CCC(=O)O)C(=O)N[C@@](C)(Cc1ccc(O)cc1)C(=O)N[C@@H](CC(C)C)C(=O)N[C@H](C(=O)N[C@@H](CCC(=O)O)C(=O)NCC(=O)NCC(=O)N1CCC[C@H]1C(=O)N[C@@H](CO)C(=O)N[C@@H](CO)C(=O)NCC(=O)N[C@@H](C)C(=O)N1CCC[C@H]1C(=O)N1CCC[C@H]1C(=O)N1CCC[C@H]1C(=O)N[C@@H](CO)C(=O)N[C@@H](CCCCNC(=O)COCCOCCNC(=O)COCCOCCNC(=O)CC[C@H](NC(=O)CCCCCCCCCCOc1ccc(C(=O)O)cc1)C(=O)O)C(N)=O)[C@@H](C)CC)[C@@H](C)CC [Example 288]
[1]; [4]
  EC50: > 9950 nM
[1]; [5]
  EC50: > 9950 nM
[2]; [6]
  Emax: 85.2%
[2]; [7]
  Emax: 110%
[2]; [8]
  EC50: 0.0219 nM
[3]; [9]
  Emax: 123%

## CC[C@H](C)[C@H](NC(=O)[C@H](CC(C)C)NC(=O)[C@](C)(Cc1ccc(O)cc1)NC(=O)[C@@H](CCC(=O)O)NC(=O)[C@@H](NC(=O)[C@H](Cc1ccccc1)NC(=O)[C@H](CCC(=O)O)NC(=O)C(C)(C)NC(=O)[C@H](CCC(N)=O)NC(=O)[C@H](C)NC(=O)[C@H](CCCCNC(=O)COCCOCCNC(=O)CC[C@H](NC(=O)CCCCCCCCCOc1ccc(C(=O)O)cc1)C(=O)O)NC(=O)[C@H](CCCN)NC(=O)[C@H](CC(=O)O)NC(=O)[C@H](CC(C)C)NC(=O)[C@](C)(CC(C)C)NC(=O)[C@@H](NC(=O)C(C)(C)NC(=O)[C@H](Cc1ccncc1)NC(=O)[C@H](CC(=O)O)NC(=O)[C@H](CO)NC(=O)[C@@H](NC(=O)[C@](C)(Cc1ccccc1F)NC(=O)[C@@H](NC(=O)CNC(=O)[C@H](CCC(=O)O)NC(=O)C(C)(C)NC(=O)[C@@H](N)Cc1ccc(O)cc1)[C@@H](C)O)[C@@H](C)O)[C@@H](C)CC)[C@@H](C)CC)C(=O)N[C@@H](CCC(=O)O)C(=O)NCC(=O)NCC(=O)N1CCC[C@H]1C(=O)N[C@@H](CO)C(=O)N[C@@H](CO)C(=O)NCC(=O)N[C@@H](C)C(=O)N1CCC[C@H]1C(=O)N1CCC[C@H]1C(=O)N1CCC[C@H]1C(=O)N[C@@H](CO)C(=O)N[C@@H](CCCCNC(=O)COCCOCCNC(=O)CC[C@H](NC(=O)CCCCCCCCCOc1ccc(C(=O)O)cc1)C(=O)O)C(N)=O [Example 362]
[1]; [5]
  EC50: > 10100 nM
[1]; cAMP, 37° C., 0.1% bovine casein and 1.0% human serum albumin, geometric mean (SEM, n)
  EC50: > 9950 nM
[2]; HEK293, read-out: hGIPR Emax, % ± SEM, cAMP, 37° C., 0.1% bovine casein and 1.0% human serum albumin
  Emax: 86.7%
[2]; [8]
  EC50: 0.0131 nM
[3]; HEK293, read-out: hGLP-1R Emax, % ± SEM, cAMP, 37° C., 0.1% bovine casein, percent of maximal response to GLP-1(7-36)NH2, arithmetic mean
  Emax: 109%
[3]; 37° C.
  EC50: 0.34 nM

## CC[C@H](C)[C@H](NC(=O)[C@H](CCCN)NC(=O)[C@H](CC(=O)O)NC(=O)[C@H](CC(C)C)NC(=O)[C@](C)(CC(C)C)NC(=O)[C@@H](NC(=O)[C@H](CO)NC(=O)[C@H](Cc1ccc(OC)cc1)NC(=O)[C@H](CC(=O)O)NC(=O)[C@H](CO)NC(=O)[C@@H](NC(=O)[C@](C)(Cc1ccccc1F)NC(=O)[C@@H](NC(=O)CNC(=O)[C@H](CCC(=O)O)NC(=O)C(C)(C)NC(=O)[C@@H](N)Cc1ccc(O)cc1)[C@@H](C)O)[C@@H](C)O)[C@@H](C)CC)C(=O)N[C@@H](C)C(=O)N[C@@H](CCC(N)=O)C(=O)NC(C)(C)C(=O)N[C@@H](CCCCNC(=O)COCCOCCNC(=O)COCCOCCNC(=O)CC[C@H](NC(=O)CCCCCCCCCOc1ccc(C(=O)O)cc1)C(=O)O)C(=O)N[C@@H](Cc1ccccc1)C(=O)N[C@H](C(=O)N[C@H](CCC(=O)O)C(=O)N[C@@](C)(Cc1ccc(O)cc1)C(=O)N[C@@H](CC(C)C)C(=O)N[C@H](C(=O)N[C@@H](CCCCNC(=O)COCCOCCNC(=O)COCCOCCNC(=O)CC[C@H](NC(=O)CCCCCCCCCOc1ccc(C(=O)O)cc1)C(=O)O)C(=O)NCC(=O)NCC(=O)N1CCC[C@H]1C(=O)N[C@@H](CO)C(=O)N[C@@H](CO)C(=O)NCC(=O)N[C@@H](C)C(=O)N1CCC[C@H]1C(=O)N1CCC[C@H]1C(=O)N1CCC[C@H]1C(=O)N[C@@H](CO)C(N)=O)[C@@H](C)CC)[C@@H](C)CC [Example 280]
[1]; [4]
  EC50: > 9950 nM
[1]; [5]
  EC50: > 9950 nM
[2]; [6]
  Emax: 88.5%
[2]; [7]
  Emax: 105%
[2]; 0.1% bovine casein and 1.0% human serum albumin, 37° C.
  EC50: 4.84 nM
[2]; [8]
  EC50: 0.0229 nM
[3]; [9]
  Emax: 105%
[3]; 37° C.
  EC50: 0.346 nM

## CC[C@H](C)[C@H](NC(=O)[C@H](CCCN)NC(=O)[C@H](CC(=O)O)NC(=O)[C@H](CC(C)C)NC(=O)[C@](C)(CC(C)C)NC(=O)[C@@H](NC(=O)[C@H](CO)NC(=O)[C@H](CCCCNC(=O)COCCOCCNC(=O)COCCOCCNC(=O)CC[C@H](NC(=O)CCCCCCCCCCCCC(=O)O)C(=O)O)NC(=O)[C@H](CC(=O)O)NC(=O)[C@H](CO)NC(=O)[C@@H](NC(=O)[C@](C)(Cc1ccccc1F)NC(=O)[C@@H](NC(=O)CNC(=O)[C@H](CCC(=O)O)NC(=O)C(C)(C)NC(=O)[C@@H](N)Cc1ccc(O)cc1)[C@@H](C)O)[C@@H](C)O)[C@@H](C)CC)C(=O)N[C@@H](C)C(=O)N[C@@H](CCC(N)=O)C(=O)NC(C)(C)C(=O)N[C@@H](CCC(=O)O)C(=O)N[C@@](C)(Cc1ccccc1)C(=O)N[C@H](C(=O)N[C@@H](CCCCNC(=O)COCCOCCNC(=O)COCCOCCNC(=O)CC[C@H](NC(=O)CCCCCCCCCCCCC(=O)O)C(=O)O)C(=O)N[C@@](C)(Cc1ccc(O)cc1)C(=O)N[C@@H](CC(C)C)C(=O)N[C@H](C(=O)N[C@@H](CCC(=O)O)C(=O)NCC(=O)NCC(=O)N1CCC[C@H]1C(=O)N[C@@H](CO)C(=O)N[C@@H](CO)C(=O)NCC(=O)N[C@@H](C)C(=O)N1CCC[C@H]1C(=O)N1CCC[C@H]1C(=O)N1CCC[C@H]1C(=O)N[C@@H](CO)C(N)=O)[C@@H](C)CC)[C@@H](C)CC [Example 110]
[1]; cAMP, incubated at 37° C., 0.1% bovine casein (no human serum albumin), geometric mean
  EC50: > 9950 nM
[2]; cAMP, incubated at 37° C., 0.1% bovine casein (no human serum albumin)
  EC50: 0.0417 nM
[3]; HEK293, read-out: hGLP-1R Emax, % ± SEM, percent of maximal response to GLP-1(7-36)NH2, 37° C., 0.1% bovine casein, arithmetic mean
  Emax: 98.8%
[3]; incubated at 37° C.
  EC50: 1.43 nM
